Several values for one entry are separate records, joined by “and”; a condition that tells them apart may be missing. Equal values may be shown once. Read-outs that look alike come from different tables or passages of the source.
Experiments:
[1] = biological target: T1, GB1-FRS2-PTB (Homo sapiens, UniProt Q8WU20); assay: Microscale thermophoresis (MST); assay type: binding; details: for Kd: GB1-FRS2_PTB; for binding by MST trace analysis (result in words): signal:noise ratio > 5 counts as binding
T1 construct: FRS2-PTB 11-140aa; 6xHis (N); made in house; host or cells: E. coli BL21 (DE3)
T1 sequence (Q8WU20 11-140): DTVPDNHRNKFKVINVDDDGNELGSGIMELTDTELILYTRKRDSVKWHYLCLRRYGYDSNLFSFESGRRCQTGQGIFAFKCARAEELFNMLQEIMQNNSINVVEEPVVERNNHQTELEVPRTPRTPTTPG
Description: Protein labeling for MST was performed with the 2nd Generation BLUE-NHS dye. GB1-FRS2_PTB- was labelled at 20 μM with 60 μM dye and incubated for 30 min in the dark at room temperature. The labelling was performed in the protein buffer without arginine supplementation. It was rebuffered to protein buffer (100 mM sodium phosphate, 50 mM NaCl, 0.5 mM EDTA, 50 mM arginine, 1 mM TCEP, pH 7.0). The dye was subsequently removed by gravitational flow chromatography and the protein concentration determined by UV-spectroscopy. The assay was established with the FGFR_PEP. […] A total volume of 10 μl of 50 nM labelled protein was added to 10 μl of the peptide dilution series for a final labelled protein concentration of 25 nM. The samples were incubated for 15 min at RT. […] Temperature was set to 25 °C. Each measurement was repeated twice. The interaction was measured in duplicates for the non-DMSO-supplemented buffer and in triplicates for DMSO-supplemented buffer. […] The samples were incubated for 15 min, and MST assessed as described above. Each measurement was repeated twice. The interaction was measured in two independent duplicates. […] The mixture was then measured for their initial fluorescence once. MST-experiments were performed with MO.Control vers. 1.6 (NanoTemper Technologies, Munich, Germany) and data analyzed with MO.Analysis vers. 2.3 (NanoTemper Technologies, Munich, Germany). Data was plotted with GraphPad Prism vers. 8.3.0 (GraphPad Software, San Diego, USA).

[2] = test system: human cancer cell lines; assay: CellTiter-Glo viability (2D culture or 3D spheroids), cell line panel; assay type: cell-based; details: for reduction of viability: DAOY, AGS and HCT116 cells, between 2.7 and 20 µM, 48 h
Description: Cell viability was determined using CellTiter-Glo® 2D or 3D cell viability assays (#G9242, #G9682, Promega). 500 cells/25 µl were seeded in flat bottom (#781,091, Greiner bio-one) or U-low adhesion (#4516, Corning) 384-well plate, 24 h prior to treatment. Increasing concentrations of compounds are deposited on cells using a HP Digital Drug Dispenser with DMSO total volume normalization. After 48 h, the CellTiter-Glo® 2D or 3D reagent was added (volume/volume) following manufacturer’s instructions. Plates were incubated at RT (room temperature) under agitation for 30 min and luminescence representing the number of viable cells was quantified with a Cytation 3 imaging reader (BioTek®). Experiments were performed independently three times with three technical replicas each.

[3] = test system: Caco-2 cells; assay: CaCo-2 permeability (bi-directional); details: Direction A2B
Method in brief: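 Caco-2 monolayers (passage 40–60) cultured 20 days on Transwells, equilibrated 40 min in HBSS; compound dosed apically (A-B) or basolaterally (B-A) with 1% v/v DMSO and lucifer yellow integrity marker, in duplicate. LC–MS/MS quantification; Papp from permeation rate, C0 and monolayer area; efflux ratio = Papp(B-A)/Papp(A-B).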

[4] = Solubility at the concentration required for the biophysical assays; assay type: physicochemical; details: 5% DMSO
[5] = read-out: KD, initial fluorescence change analysis

| Structure (SMILES) | Kd [1, 5] | binding by MST trace analysis (result in words) [1] | reduction of viability [2] | Comments: A2B permeation (result in words) [3] | solubility for biophysical assays (result in words) [4] | other results |
| --- | --- | --- | --- | --- | --- | --- |
| N#Cc1c(Cl)cc(O)c2c1C1C=CCC1C(c1ccc(Cl)cc1)N2 (stereo not drawn) [Compound 14] | – | – | more than 50% | Test compound not detectable in receiver compartments A2B. | – | – |
| O=[N+]([O-])c1c(Cl)cc(O)c2c1C1C=CCC1C(c1ccc(Cl)cc1Cl)N2 (stereo not drawn) [Compound 8] | – | – | – | Test compound not detectable in receiver compartments A2B. | soluble in 5% DMSO | – |
| O=[N+]([O-])c1c(Cl)cc(O)c2c1C1C=CCC1C(c1ccc(Cl)cc1)N2 (stereo not drawn) [Compound 7] | – | – | more than 50% | – | soluble in 5% DMSO | IC50 ([2]; Homo sapiens, read-out: IC50 of cell viability, all lines): < 20 µM |

Further lines, with some results ahead:

| Kd [1, 5] | binding by MST trace analysis (result in words) [1] | Structure (SMILES) | reduction of viability [2] | Comments: A2B permeation (result in words) [3] | solubility for biophysical assays (result in words) [4] | other results |
| --- | --- | --- | --- | --- | --- | --- |
| 3.1 µM and 4 µM | no binding was detected | COc1ncc(C(C)NC2CC(C)(C)NC(C)(C)C2)cc1Cl (stereo not drawn) [Compound 3.3] | – | – | – | – |
| 19.6 µM and 12.8 µM and 12.8 to 19.6 µM | did show binding | CC(C)C[C@@H](CO)NCc1cc(O)c2cc(F)ccc2n1 [Compound 3.14] | – | – | – | Kd ([1]; fitting with signal-noise ratio < 5 is considered no binding, read-out: KD, MST trace analysis): 150 µM and 400 µM |
